Consider 2 compounds from patent publication US20250289774A1, “[…] OF A CANNABIDIOL-LIKE CANNABINOID” (Jazz Pharmaceuticals Research UK Limited, priority 2022, published 2025).

A short description of data set [1]: Stability of 6-OH CBDV Form A to compression (XRPD after pressing). It counts as physicochemical. The settings on record: ~60 mg in KBr pellet die, compressed overnight at ~370 MPa, analysed immediately by XRPD. The procedure: (§1) XRPD analyses were performed using a Panalytical Empyrean diffractometer equipped with a Cu X-ray tube and a PIXcel 1 D-Medipix3 detector system. The samples were analysed at ambient temperature in transmission mode and held between low density PVC films. The XRPD program parameters were: range 3-40° 2θ or 4-40° 2θ, step size 0.01313°, counting time 23 sec, ˜5 min run time. Samples were spun at 60 rpm during data collection. XRPD patterns were sorted, manipulated using HighScore Plus v4.9 software.
Crystalline Form A material (˜60 mg) was added to a KBr pellet die and compressed overnight at ˜370 MPa using a hydraulic press. The resultant solid disc was removed from the press and immediately analysed by XRPD.

The nature of data set [2]: Stability of Form A to ball milling (XRPD after milling). It counts as physicochemical. The settings on record: 6 minutes at 25 Hz. As for the experimental part:
as §1
A ball mill was used to mimic the effects of grinding that would be experienced during formulation steps such as dry blending and wet granulation.
Approximately 45 mg of crystalline Form A material was added to a milling chamber with an agate milling ball. Using a Retsch MM200 mixer mill, the material was milled for 6 minutes at a frequency of 25 Hz. Periodically, the milling was stopped and powder that adhered to the milling chamber was scraped down. The resultant milled material was analysed using XRPD. Samples were also milled with addition of a small amount of solvent (˜10 μL).

Data set [3] deals with mouse model of generalised seizure. The settings on record: data of PCT/GB2020/052944; cited from earlier work.

Take `C=C(C)[C@@H]1C[C@H](O)C(C)=C[C@H]1c1c(O)cc(CCC)cc1O` [Form A, 6-hydroxy cannabidivarin]: the “Solid form after compression (XRPD)” value in data set [1] was “remained as Form A”. The “Output Form after milling (XRPD)” value in data set [2] (dry ball milling, no solvent) is “no change in form”; in data set [2] (wet ball milling, water (~10 μL)), “no change in form”.

With `C=C(C)[C@@H]1C[C@H](O)C(C)=C[C@H]1c1c(O)cc(CCC)cc1O` [6-OH CBDV, 6-hydroxy cannabidivarin], the Anticonvulsant activity result in data set [3] is recorded as “displays anticonvulsant activity”.
